Several values for one entry are separate records, joined by “and”; a condition that tells them apart may be missing. Equal entries are not always repeated. Where two headings read alike, the source gives them in different places.
Assays:
[1] = test system: FGFR2 in KATO III; test: FGFR2 phosphorylation by immunoblotting, KATO III; format: cell-based; details: 0.3 μM to 10 μM for 2 h, then KGF stimulation for 15 min
Description: (§1) Cells whose growth rely on FGFR2 as determined in Example 585 such as KATO III and SNU-16, were treated with increasing concentration of example 159, from 0.3 μM to 10 μM for 2 h, followed by stimulation with […] of KGF for 15 min.

[2] = test system: FGFR2 in SNU-16; test: FGFR2 phosphorylation by immunoblotting, SNU-16; format: cell-based; details: 0.3 μM to 10 μM for 2 h, then KGF stimulation for 15 min
Description: as §1

[3] = test system: Kato III cells; test: cell cycle profile by FACS analyses; format: cell-based
Description: Kato III cells were treated with example 159, or FGFR2 siRNA. Cell cycle profiles were assessed by FACS analyses (FIG. 3).

[4] = test system: SNU-16, Ba/F3-FGFR2 or Ba/F3 INSR tumors; test: tumor growth in xenograft models; format: in vivo; details: subcutaneous tumors in nude mice; orally dosed once daily
Description: (A) Tumor from cancer cells SNU-16, Ba/F3-FGFR2 or Ba/F3 INSR were established subcutaneously in nude mice. Tumor growth in nude mice orally dosed with the indicated dose of example 159, or vehicle control was determined. All regimens were administered once daily for the indicated number of days. Tumor sizes were evaluated periodically during treatment and are represented as the mean of tumor volume in mm3±SEM (n=10) (FIGS. 4A-C). Phosphorylation of FGFR2 (D) or ERK (E) was assessed for cells from tumors harvested at the indicated time points after a single oral administration of 250 mg/kg of Example 159 by immunohistochemistry.

[5] = test system: CALU-6; test: combination cytotoxicity, CALU-6; format: cell-based; details: in combination with (3R,4R)-3-(5,6-dihydro-4H-pyrrolo[3,2,1-ij]quinolin-1-yl)-4-(1H-indol-3-yl)pyrrolidine-2,5-dione
Excerpt: (§2) The combination data of (R)-6-(2-fluorophenyl)-N-(3-(2-(4-(2-methoxyethyl)piperazin-1-yl)ethyl)phenyl)-5,6-dihydrobenzo[h]quinazolin-2-amine with a kinase inhibitor (3R,4R)-3-(5,6-dihydro-4H-pyrrolo[3,2,1-ij]quinolin-1-yl)-4-(1H-indol-3-yl)pyrrolidine-2,5-dione is shown in Table 28. The identity and tissue origin of cancer cell lines are indicated.

[6] = test system: SNU-16; test: combination cytotoxicity, SNU-16; format: cell-based; details: in combination with (3R,4R)-3-(5,6-dihydro-4H-pyrrolo[3,2,1-ij]quinolin-1-yl)-4-(1H-indol-3-yl)pyrrolidine-2,5-dione
Excerpt: as §2

[7] = test system: RT4; test: combination cytotoxicity, RT4; format: cell-based; details: in combination with (3R,4R)-3-(5,6-dihydro-4H-pyrrolo[3,2,1-ij]quinolin-1-yl)-4-(1H-indol-3-yl)pyrrolidine-2,5-dione
Excerpt: as §2

[8] = test system: LS174T; test: combination cytotoxicity, LS174T; format: cell-based; details: in combination with (3R,4R)-3-(5,6-dihydro-4H-pyrrolo[3,2,1-ij]quinolin-1-yl)-4-(1H-indol-3-yl)pyrrolidine-2,5-dione
Excerpt: as §2

[9] = test system: THP-1; test: combination cytotoxicity, THP-1; format: cell-based; details: in combination with (3R,4R)-3-(5,6-dihydro-4H-pyrrolo[3,2,1-ij]quinolin-1-yl)-4-(1H-indol-3-yl)pyrrolidine-2,5-dione
Excerpt: as §2

[10] = test system: CAKI-2; test: combination cytotoxicity, CAKI-2; format: cell-based; details: in combination with (3R,4R)-3-(5,6-dihydro-4H-pyrrolo[3,2,1-ij]quinolin-1-yl)-4-(1H-indol-3-yl)pyrrolidine-2,5-dione
Excerpt: as §2

[11] = test system: DU4475; test: combination cytotoxicity, DU4475; format: cell-based; details: in combination with (3R,4R)-3-(5,6-dihydro-4H-pyrrolo[3,2,1-ij]quinolin-1-yl)-4-(1H-indol-3-yl)pyrrolidine-2,5-dione
Excerpt: as §2

[12] = test system: A549; test: combination cytotoxicity, A549; format: cell-based; details: in combination with (3R,4R)-3-(5,6-dihydro-4H-pyrrolo[3,2,1-ij]quinolin-1-yl)-4-(1H-indol-3-yl)pyrrolidine-2,5-dione
Excerpt: as §2

[13] = test system: RT112; test: combination cytotoxicity, RT112; format: cell-based; details: in combination with (3R,4R)-3-(5,6-dihydro-4H-pyrrolo[3,2,1-ij]quinolin-1-yl)-4-(1H-indol-3-yl)pyrrolidine-2,5-dione
Excerpt: as §2

[14] = molecular target: T1, FGFR2 kinase (Homo sapiens, UniProt P21802, N549H); test: fluorescent ELISA FGFR2 kinase assay (biochemical)
T1 construct: purchased Millipore 14-742
Summary of the method: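 Heterogeneous fluorescent ELISA with biotinylated tyrosine-motif peptide substrate; 60-min kinase reaction, then 30-min streptavidin capture at room temperature, during which phosphorylation continues. Stopped by TBST washes; phosphotyrosine detected with anti-phospho-tyrosine antibody plus secondary antibody.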

[15] = test system: KATO III; test: MTS assay, KATO III; format: cell-based; details: Homo sapiens, read-out: MTS IC50
Description: (§3) Cells were maintained at 37° C., 5% CO2 in DMEM media supplemented with 1% fetal bovine serum, penicillin/streptomycin and fungizone (Invitrogen). Cells were seeded into 96-well tissue culture plates at 3000 per well and cultured at 37° C. for 18 hours. Test compounds were dissolved and diluted to 300× in DMSO then diluted 1:40 in DMEM.

[16] = test system: SNU-16; test: MTS assay, SNU-16; format: cell-based; details: Homo sapiens, SNU-16, SNU-16; read-out: MTS IC50
Description: as §3

[17] = test system: KATO III; test: in vitro PD assay, KATO III; format: cell-based; details: Homo sapiens
[18] = test system: SNU-16; test: in vitro PD assay, SNU-16; format: cell-based; details: Homo sapiens
[19] = test system: Ba/F3 parental cells; test: MTS assay, Ba/F3 parental; details: Mus musculus, BaF3, read-out: MTS IC50
Description: as §3

T1 sequence (P21802 456-770 N549H limits assumed): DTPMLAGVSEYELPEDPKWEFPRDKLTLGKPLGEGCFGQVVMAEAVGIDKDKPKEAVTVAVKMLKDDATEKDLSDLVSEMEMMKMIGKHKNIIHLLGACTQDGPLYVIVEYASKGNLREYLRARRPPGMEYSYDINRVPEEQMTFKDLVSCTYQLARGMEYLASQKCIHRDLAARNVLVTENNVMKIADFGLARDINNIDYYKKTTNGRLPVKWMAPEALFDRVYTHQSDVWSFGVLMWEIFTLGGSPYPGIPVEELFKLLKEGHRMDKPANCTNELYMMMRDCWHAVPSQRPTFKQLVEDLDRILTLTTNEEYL

| IC50 ([14]; FGFR2 (N549H), read-out: Biochemical data (IC50-μM) FGFR2 (N549H)) | IC50 ([14]; read-out: Biochemical IC50) [µM] | IC50 [16] [nM] | IC50 [17] [nM] | IC50 [18] [nM] | Structure (SMILES) | amount of phosphorylated FGFR2 [1] | amount of phosphorylated FGFR2 [2] | cell cycle profile [3] | tumor growth in xenograft models [4] | combination cytotoxicity [5] | combination cytotoxicity [6] | combination cytotoxicity [7] | combination cytotoxicity [8] | combination cytotoxicity [9] | combination cytotoxicity [10] | combination cytotoxicity [11] | combination cytotoxicity [12] | combination cytotoxicity [13] | IC50 [15] [nM] | IC50 [19] [nM] |
| --- | --- | --- | --- | --- | --- | --- | --- | --- | --- | --- | --- | --- | --- | --- | --- | --- | --- | --- | --- | --- |
| – | – | – | – | – | COCCN1CCN(CCc2cccc(Nc3ncc4c(n3)-c3ccccc3[C@H](c3ccccc3F)C4)c2)CC1 [(R)-6-(2-fluorophenyl)-N-(3-(2-(4-(2-methoxyethyl)piperazin-] [(R)-6-(2-fluorophenyl)-N-(3-(2-(4-(2-methoxyethyl)piperazin-1-yl)ethyl)phenyl)-5,6-dihydrobenzo[h]quinazolin-2-amine] | inhibition of autophosphorylation of FGFR2 | inhibition of autophosphorylation of FGFR2 | arrest of KATO III cells in G1 phase | inhibition of tumor growth | additive cytotoxicity | additive cytotoxicity | additive cytotoxicity | additive cytotoxicity | additive cytotoxicity | additive cytotoxicity | additive cytotoxicity | additive cytotoxicity | additive cytotoxicity | – | – |
| 0.00714 µM and 0.0523 µM | 0.0004 | 1000 | 100 | 200 | COCCN1CCN(CCc2cccc(Nc3ncc4c(n3)-c3ccccc3[C@H](c3ccccc3F)C4)c2)CC1 [Example 159, (R)-6-(2-fluorophenyl)-N-(3-(2-(4-(2-methoxyethyl)piperazin-1-yl)ethyl)phenyl)-5,6-dihydrobenzo[h]quinazolin-2-amine] | – | – | – | – | – | – | – | – | – | – | – | – | – | 100 | 70000 |
